Read-outs that look alike come from different tables or passages of the source.
How the values were obtained:
L5178Y-R [1] = assay: HMGB1 release assay (ELISA); assay type: cell-based, murine; conditions: PKHB1 CC100, 2h
Method: Supernatants of untreated and treated (PKHB1 CC50 and CC100 for each cell line) leukemic cells (1×10^6 cells/mL) were used to measure extracellular HMGB1 using the HMGB1 ELISA kit for CEM, MOLT-4 or L5178Y-R cells (BioAssay ELISA kit Human or mouse respectively, US biological Life Science Salem, Mass., USA), following the manufacturer instructions. Absorbance was assessed at 450 nm.

MOLT-4 [2] = assay: Western blot of HSP90, HSP70, CRT and HMGB1; assay type: cell-based, human; conditions: CC50 and CC100, 2h
Method: (§1) 1×10^6 cells/mL were seeded in a serum-free culture medium and treated with PKHB1 (CC50 and CC100 for each cell line) or left alone (Control) for 2h. Supernatants was recovered and lysed with lysis buffer (20 mM Tris pH 6.8, 2 mM EDTA, 300 mM NaCl and SDS 2%). Protein concentration was measured using the DC Protein Assay kit (Bio-Rad, Hercules, Calif., USA) and 50 μg of protein were loaded into SDS-PAGE gels. After blotting, nitrocellulose filters were probed with primary antibodies (1:1000) against HMGB1 (HAP46.5: sc-56698), HSP70 (C92F3A-5: sc-66048), HSP90 (F-8: SC-13119) and Calreticulin (F-4: sc373863). Anti-mouse or anti-rabbit-HRP served as secondary antibodies (Santa Cruz Biotechnology, CA, USA). Visualization was performed with ECL substrate system (Thermo Scientific, Waltham, Mass., USA).

CEM [3] = assay: Western blot of HSP90, HSP70, CRT and HMGB1; assay type: cell-based, human; conditions: CC50 and CC100, 2h
Method: as §1

L5178Y-R [4] = assay: ATP release assay (luciferase bioluminescence); assay type: cell-based, murine; conditions: CC50 and CC100, 2h
Method: 1×10^6 cells/mL were treated with PKHB1 (CC50 and CC100 for each cell lines) for 2h. Supernatants were used to assess extracellular ATP by a luciferase assay (ENLITEN kit, Promega, Madison Wis., USA) following the manufacturer's instructions. Bioluminescence was assessed in a microplate reader (Synergy HT, BioTek, Software Gen5, Winooski, Vt., USA) at 560 nm.

[5] = tested on: human PBMCs and CD4+ and CD8+ human T cells from healthy donors; assay: Selectivity on non-cancerous human cells (Annexin-V/PI); assay type: cell-based
Method: Peripheral blood was collected from 10 healthy volunteers after obtaining written informed consent. This study was approved by the Institutional Ethics Committee at the Universidad Autonoma de Nuevo Leon, College of Biological Sciences. The animal study was approved by the Animal Ethical Committee (CEIBA), Number: 01/2015. All experiments were conducted according to Mexican regulation NOM-062-ZOO-1999. The blood from sacrificed mice was obtained by cardiac puncture, while human blood was collected by venipuncture. Peripheral blood mononuclear cells (PBMCs) isolation was performed by density gradient centrifugation using Ficoll-Hypaque-1119 (Sigma-Aldrich, St Louis, Mo., USA). 4×10^5 white blood cells were washed and seeded. […]
CEM, MOLT-4 (T-acute lymphoblastic leukemia, T-ALL), and L5178Y-R (murine lymphoblastic T cell line) were obtained from ATCC. […] Cell Death Induction, and Inhibition Annexin-V-allophycocyanin (Ann-V-APC 0.1 μg/ml; BD Pharingen, San Jose Calif., USA), propidium iodide (PI, 0.5 μg/ml Sigma-Aldrich), and tetramethylrhodamine ethyl ester (TMRE, 20 nM, Sigma-Aldrich) were used for phosphatidylserine exposure, cell viability, and mitochondrial transmembrane potential (UΨm) quantification, respectively, in a BD AccuryC6 flow cytometer (BD Biosciences) (total population 10,000 cells). Data were analyzed using FlowJo software. […]

CEM [6] = assay: Calreticulin exposure (flow cytometry, confocal microscopy); assay type: cell-based, human; conditions: CC50 of PKHB1, 2h
Method: 1×10^6 cells/mL were plated, treated with PKHB1, and incubated for 2h. Cells were harvested, washed, and stained with Calreticulin-PE (FMC-75, Enzo Life Science, Farmingdale, N.Y., USA) antibody (1:1000) in FACS buffer. After 1h of incubation in darkness at room temperature, cells were washed and resuspended in 100Lp of FACS buffer to be assessed by flow cytometry. For confocal microscopy (OlympusX70), poly-Llysine was added 24h to sterile coverslips and 1×10^6 cells/mL were seeded. PKHB1 was added and incubated for 2h. Then, the cells were stained with Calreticulin-PE antibody (1:500) and Hoechst, incubated 1h, and assessed by confocal microscopy.

L5178Y-R [7] = assay: Loss of mitochondrial transmembrane potential (TMRE); assay type: cell-based, murine; conditions: PKHB1 CC50, 2h
Method: CEM, MOLT-4 (T-acute lymphoblastic leukemia, T-ALL), and L5178Y-R (murine lymphoblastic T cell line) were obtained from ATCC. Human and murine PBMCs, human CD4+ and CD8+ T cells, and primary lymphoid organ's cells were obtained from healthy individuals. Cells were maintained in RPMI-1640 medium supplemented with 10% of fetal bovine serum, 2 mM L-glutamine, 100 U/mL penicillin-streptomycin (GIBCO by Life Technologies, Grand Island, N.Y., USA), and incubated at 37° C. in a controlled humidified atmosphere with 5% CO2. Cell count was performed using trypan blue (0.4% Sigma-Aldrich), a Neubauer chamber and an optic microscope (Zeiss Primo Star) as proposed by the ATCC's standard protocols. Flow Cytometry. Cell Death Induction, and Inhibition Annexin-V-allophycocyanin (Ann-V-APC 0.1 μg/ml; BD Pharingen, San Jose Calif., USA), propidium iodide (PI, 0.5 μg/ml Sigma-Aldrich), and tetramethylrhodamine ethyl ester (TMRE, 20 nM, Sigma-Aldrich) were used for phosphatidylserine exposure, cell viability, and mitochondrial transmembrane potential (UΨm) quantification, respectively, in a BD AccuryC6 flow cytometer (BD Biosciences) (total population 10,000 cells). Data were analyzed using FlowJo software. 1×10^6 cells/mL were treated for 2h with PKHB1 (as indicated). […]

[8] = Cell death by Annexin-V-APC/PI flow cytometry; assay type: cell-based, murine; conditions: L5178Y-R, 2h; read-out: cytotoxic concentration that induces around 50% of cell death (CC50)
Method: (§2) CEM, MOLT-4 (T-acute lymphoblastic leukemia, T-ALL), and L5178Y-R (murine lymphoblastic T cell line) were obtained from ATCC. Human and murine PBMCs, human CD4+ and CD8+ T cells, and primary lymphoid organ's cells were obtained from healthy individuals. Cells were maintained in RPMI-1640 medium supplemented with 10% of fetal bovine serum, 2 mM L-glutamine, 100 U/mL penicillin-streptomycin (GIBCO by Life Technologies, Grand Island, N.Y., USA), and incubated at 37° C. in a controlled humidified atmosphere with 5% CO2. Cell count was performed using trypan blue (0.4% Sigma-Aldrich), a Neubauer chamber and an optic microscope (Zeiss Primo Star) as proposed by the ATCC's standard protocols. Flow Cytometry. Cell Death Induction, and Inhibition Annexin-V-allophycocyanin (Ann-V-APC 0.1 μg/ml; BD Pharingen, San Jose Calif., USA), propidium iodide (PI, 0.5 μg/ml Sigma-Aldrich), and tetramethylrhodamine ethyl ester (TMRE, 20 nM, Sigma-Aldrich) were used for phosphatidylserine exposure, cell viability, and mitochondrial transmembrane potential (UΨm) quantification, respectively, in a BD AccuryC6 flow cytometer (BD Biosciences) (total population 10,000 cells). Data were analyzed using FlowJo software. 1×10^6 cells/mL were treated for 2h with PKHB1 (as indicated). For the inhibition assays, calcium chelator, BAPTA (5 mM, CalbioChem, Merck, Billerica Mass., USA); or the pancaspase inhibitor Q-VD-OPh (QVD, 10 μM, BioVision, Milpitas Calif., USA); were added 30 min before PKHB1.

L5178Y-R [9] = assay: Cell death by Annexin-V-APC/PI flow cytometry; assay type: cell-based, murine; conditions: 2h; for cell death percentage: PKHB1 200 μM
Method: as §2

MOLT-4 [10] = assay: Cell death by Annexin-V-APC/PI flow cytometry; assay type: cell-based; conditions: MOLT-4, 2h; for cell death percentage: PKHB1 200 μM
Method: as §2

[11] = Cell death by Annexin-V-APC/PI flow cytometry; assay type: cell-based; conditions: MOLT-4, 2h; read-out: cytotoxic concentration that induces around 50% of cell death (CC50)
Method: as §2

L5178Y-R [12] = assay: Western blot of HSP90, HSP70, CRT and HMGB1; assay type: cell-based, murine; conditions: CC50 and CC100, 2h
Method: as §1

[13] = pre-incubated 30 min with Ca2+ chelator BAPTA
[14] = pre-incubated 30 min with pan-caspase inhibitor Q-VD-OPH

CSCC[C@H](NC(=O)[C@@H](NC(=O)[C@@H](NC(=O)[C@H](Cc1ccc(O)cc1)NC(=O)[C@H](Cc1ccccc1)NC(=O)[C@H](CCCNC(=N)N)NC(=O)[C@H](N)CCCCN)C(C)C)C(C)C)C(=O)N[C@@H](Cc1c[nH]c2ccccc12)C(=O)N[C@@H](CCCCN)C(=O)N[C@H](CCCCN)C(=O)O [PKHB1, (D)K-R-F-Y-V-V-M-W-K-(D)K]
HMGB1 release compared to the untreated control (L5178Y-R [1]): 2 fold
expression of HSP90, HSP70, CRT and HMGB1 in cellular lysates (MOLT-4 [2]): decrease
expression of HSP90, HSP70, CRT and HMGB1 in supernatants (MOLT-4 [2]; vs untreated cells): increased
expression of HSP90, HSP70, CRT and HMGB1 in cellular lysates (CEM [3]): decrease
expression of HSP90, HSP70, CRT and HMGB1 in supernatants (CEM [3]; vs untreated cells): increased
presence of ATP in supernatants (L5178Y-R [4]): significantly augmented
cell viability of non-cancerous cells [5]: did not significantly affected cell viability
CRT exposure (CEM [6]): significant increase
loss of mitochondrial membrane potential (L5178Y-R [7]): 51%±8
CC50 [8]: 200 µM
cell death (Ann-V-APC/PI positive cells) (L5178Y-R [9]; 100, 200 and 300 μM): concentration-dependent
CC100 (L5178Y-R [9]): 300 µM
cell death percentage (L5178Y-R [9]; left alone): 52%±5
cell death percentage (L5178Y-R [9]; [13]): 21%±8
cell death percentage (L5178Y-R [9]; [14]): 49%±3
cell death (Ann-V-APC/PI positive cells) (MOLT-4 [10]; 100, 200 and 300 μM): concentration-dependent
cell death percentage (MOLT-4 [10]; left alone): 57%±4
cell death percentage (MOLT-4 [10]; [13]): 38%±3
cell death percentage (MOLT-4 [10]; [14]): 51%±6
CC50 [11]: 300 µM
expression of HSP90, HSP70, CRT and HMGB1 in cellular lysates (L5178Y-R [12]): decrease
expression of HSP90, HSP70, CRT and HMGB1 in supernatants (L5178Y-R [12]; vs untreated cells): increased
